Molecules are shown by their SMILES.

What all share (type): ADME, organism-based
Data set [1] is described as follows: Half life in female rat was determined with intravenous dosing at 1 mpk and oral dosing at 2 mpk. The settings on record: in vivo.
Data set [2] is described as follows: Plasma clearance in female rat was determined with intravenous dosing at 1 mpk and oral dosing at 2 mpk. The note with it: 1 mg/kg.
Data set [3] in a line: Bioavailability in rat (female) (dose 1 mg/kg i.v. and 2 mg/kg p.o.). The note with it: in vivo, po.

In the case of `C[C@@H]1CCN(CCOc2ccc([C@@H]3Oc4ccc(O)c(F)c4[C@@H](C)[C@@H]3c3ccc(O)cc3)cc2)C1`, the half-life in data set [1] is 8 h. Further, the clearance in data set [2] was 17.8 mL/min/kg. The compound also returned a bioavailability in data set [3] of 43%.

Regarding `C[C@@H]1c2c(ccc(O)c2F)O[C@@H](c2ccc(OC[C@H](C)N3CCCC3)cc2)[C@H]1c1ccc(O)cc1`, in data set [1], the half-life was 4.4 h. The compound further had a clearance in data set [2] of 42.6 mL/min/kg. This compound gave a bioavailability in data set [3] of 31%.

Compound `C[C@@H]1c2c(ccc(O)c2F)O[C@@H](c2ccc(OCCN3CCCCC3)cc2)[C@H]1c1ccc(O)cc1` had a half-life in data set [1] of 11.2 h. The compound further gave a clearance in data set [2] of 16.9 mL/min/kg. This compound also registered a bioavailability in data set [3] of 54%.

In data set [1], `C[C@H]1CCN([C@@H](C)COc2ccc([C@@H]3Oc4ccc(O)c(F)c4[C@@H](C)[C@@H]3c3ccc(O)cc3)cc2)C1` showed a half-life of 6.1 h. In addition, the clearance in data set [2] was found to be 9 mL/min/kg. The same compound gave a bioavailability in data set [3] of 44%.

Take `C[C@@H]1c2cc(O)ccc2O[C@@H](c2ccc(OCCN3CCCCC3)cc2)[C@H]1c1ccc(O)cc1`: in data set [1], the half-life is 8.1 h. The compound further yielded a clearance in data set [2] of 7.7 mL/min/kg. The same compound had a bioavailability in data set [3] of 45%.

In data set [1], `C[C@@H]1c2ccc(O)cc2O[C@@H](c2ccc(OCCN3CCCCC3)cc2)[C@H]1c1ccc(O)cc1` gave a half-life of 5.9 h. Also, the clearance in data set [2] turned out to be 9.5 mL/min/kg. In data set [3], this compound registered a bioavailability of 2%.

The half-life is the time needed for the level to fall by half in the phase considered. A high value points to slow loss. In general, bioavailability refers to the share of a dose that reaches the circulation, judged against a reference dose that is usually intravenous. High values mean good availability, low ones poor availability.

The values above are taken from ChEMBL document CHEMBL1142044, “Estrogen receptor ligands. Part 10: Chromanes: old scaffolds for new SERAMs” (Bioorg Med Chem Lett, 2005).
